# Experimental data published in ChEMBL document CHEMBL1212694, “Discovery and characterization of a marine bacterial SAM-dependent chlorinase” (Nat Chem Biol, 2008).
# Where a chain is given by its changes, count along the chain named. Calls of active or inactive are those of the source. No cut-off for these calls is given here.
# How the values were obtained:
# [1] = system: Salinispora tropica CNB-440; assay: Activity at Salinispora tropica CNB-440 wild type recombinant SalL expressed in Escherichia coli BL21(DE3) assessed as formation of S-Adenosyl methionine after 30 mins by HPLC analysis
# [2] = system: Salinispora tropica CNB-440; assay: Effect on Salinispora tropica CNB-440 wild type recombinant SalL expressed in Escherichia coli BL21(DE3)-mediated S-Adenosyl methionine formation after 30 mins by HPLC analysis
# [3] = system: Salinispora tropica CNB-440; assay: Ratio of Kcat to Km for Salinispora tropica CNB-440 wild type recombinant SalL expressed in Escherichia coli BL21(DE3) for formation of S-Adenosyl methionine
# [4] = system: Salinispora tropica CNB-440; assay: Activity at Salinispora tropica CNB-440 wild type recombinant SalL expressed in Escherichia coli BL21(DE3) after 30 mins by HPLC analysis relative to S-Adenosyl methionine
# [5] = system: T1, Adenosyl-chloride synthase (Salinispora tropica (strain ATCC BAA-916 / DSM 44818 / CNB-440)), A4X3Q0 [W129F]; assay: Activity at Salinispora tropica CNB-440 recombinant SalL W129F mutant expressed in Escherichia coli BL21(DE3) after 30 mins by HPLC analysis relative to S-Adenosyl methionine
# T1 sequence (whole entry): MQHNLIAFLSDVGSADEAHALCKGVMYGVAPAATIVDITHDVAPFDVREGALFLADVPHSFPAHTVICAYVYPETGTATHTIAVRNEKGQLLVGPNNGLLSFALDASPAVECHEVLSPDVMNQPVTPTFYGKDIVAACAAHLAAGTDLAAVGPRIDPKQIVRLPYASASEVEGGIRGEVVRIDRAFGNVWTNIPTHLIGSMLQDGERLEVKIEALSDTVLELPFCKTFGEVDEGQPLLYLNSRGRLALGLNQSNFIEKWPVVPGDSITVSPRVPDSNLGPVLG
# [6] = system: T2, Adenosyl-chloride synthase (Salinispora tropica (strain ATCC BAA-916 / DSM 44818 / CNB-440)), A4X3Q0 [Y70T]; assay: Activity at Salinispora tropica CNB-440 recombinant SalL Y70T mutant expressed in Escherichia coli BL21(DE3) after 30 mins by HPLC analysis relative to S-Adenosyl methionine
# T2 sequence (whole entry): T1 sequence (whole entry) with Y70T, F129W
# [7] = system: T3, Adenosyl-chloride synthase (Salinispora tropica (strain ATCC BAA-916 / DSM 44818 / CNB-440)), A4X3Q0 [Y70T,G131S]; assay: Activity at Salinispora tropica CNB-440 recombinant SalL Y70T/G131S mutant expressed in Escherichia coli BL21(DE3) after 30 mins by HPLC analysis relative to S-Adenosyl methionine
# T3 sequence (whole entry): T1 sequence (whole entry) with Y70T, F129W, G131S
# [8] = system: Salinispora tropica CNB-440; assay: Activity at Salinispora tropica CNB-440 wild type recombinant SalL expressed in Escherichia coli BL21(DE3) after 30 mins by HPLC analysis
# [9] = system: Salinispora tropica CNB-440; assay: Ratio of Kcat to Km for Salinispora tropica CNB-440 wild type recombinant SalL expressed in Escherichia coli BL21(DE3)
smiles,measurement,setting,value
CSCC[C@H](N)C(=O)O,Activity,[1],1300%
same,Km,[2],2600 µM
same,kcat,[2],0.2 s⁻¹
same,kcat/Km,[3],76.7 M⁻¹ s⁻¹
Nc1ncnc2c1ncn2[C@@H]1O[C@H](CCl)[C@@H](O)[C@H]1O,Activity,[4],100%
same,Activity,[5],11%
same,Activity,[6],1.1%
same,Activity,[7],2.5%
same,Activity,[1],1300%
same,Km,[2],0.2 µM
same,kcat,[2],0.2 s⁻¹
same,kcat/Km,[3],1e+06 M⁻¹ s⁻¹
C[S+](CC[C@H](N)C(=O)[O-])C[C@H]1O[C@@H](n2cnc3c(N)ncnc32)[C@H](O)[C@@H]1O (some centres not stated),Km,[8],1 µM
same,kcat,[8],0.015 s⁻¹
same,kcat/Km,[9],15000 M⁻¹ s⁻¹
Nc1ncnc2c1ncn2[C@@H]1O[C@H](CI)[C@@H](O)[C@H]1O,Activity,[4],100%
same,Activity,[5],12%
same,Activity,[6],1.4%
same,Activity,[7],0.8%
same,Activity,[1],5560%
same,Km,[2],4.6 µM
same,kcat,[2],0.833 s⁻¹
same,kcat/Km,[3],181000 M⁻¹ s⁻¹
Nc1ncnc2c1ncn2[C@@H]1O[C@H](CBr)[C@@H](O)[C@H]1O,Activity,[1],Active
same,Km,[2],Active
same,kcat,[2],Active
same,kcat/Km,[3],Active
